Like-named read-outs stand apart in the source and are kept apart here.
What was measured:
[1] = target: T1, Human Mitochondrial ALDH (ALDH-2) (Homo sapiens, UniProt P05091); assay: Inhibition of human mitochondrial ALDH (ALDH-2), competitive and noncompetitive inhibition constants; format: biochemical; conditions: for ALDH-2 inhibitory potency, in words: comparison with daidzin, daidzein or another compound
T1 construct: Human, hamster, and rat liver mitochondrial and cytosolic ALDH isozymes were purified as described in Klyosov; from tissue; host or cells: human liver
T1 sequence (P05091 18-517): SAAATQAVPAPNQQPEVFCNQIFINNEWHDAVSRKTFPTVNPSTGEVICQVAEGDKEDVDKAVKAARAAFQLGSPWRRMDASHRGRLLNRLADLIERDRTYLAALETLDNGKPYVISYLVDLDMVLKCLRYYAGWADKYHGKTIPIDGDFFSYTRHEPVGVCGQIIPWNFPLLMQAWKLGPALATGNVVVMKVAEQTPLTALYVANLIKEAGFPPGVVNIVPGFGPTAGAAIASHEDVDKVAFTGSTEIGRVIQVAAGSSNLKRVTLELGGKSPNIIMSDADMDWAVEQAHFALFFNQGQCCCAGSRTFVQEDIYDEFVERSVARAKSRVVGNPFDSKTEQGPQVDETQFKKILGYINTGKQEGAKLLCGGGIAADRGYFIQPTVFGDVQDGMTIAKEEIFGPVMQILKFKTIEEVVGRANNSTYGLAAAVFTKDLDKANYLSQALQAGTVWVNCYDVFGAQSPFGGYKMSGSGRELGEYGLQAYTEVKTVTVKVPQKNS
Protocol: Human, hamster, and rat liver mitochondrial and cytosolic ALDH isozymes were purified as described in […] . and Keung, W. […] Stock solutions of all water soluble substrates and test compounds were made in Milli-Q water and all others were in methanol. […] The kinetic parameters Km and Vmax for cytosolic ALDHs have been determined from Lineweaver-Burk plots derived from duplicate determinations of initial velocities whereas those for the mitochondrial isozymes were determined from progress kinetic curves in accordance with the teachings of […] .

[2] = tested on: alcohol preferring Syrian golden hamsters; assay: Ethanol intake suppression (antidipsotropic activity) in alcohol preferring Syrian golden hamsters; conditions: for ethanol intake suppression: equivalent doses (0.07 meq/hamster/day), FIG. 1; for ETOH Intake Suppression, %: ethanol-preferring golden hamsters, equivalent doses, i.p.; for suppression of hamster ethanol intake: i.p. dose or equivalent doses
[3] = target: T1, Human Mitochondrial ALDH (ALDH-2); conditions: literature; cited from earlier work
[4] = tested on: hamster liver mitochondria (MAO/ALDH pathway, DA as substrate); assay: Mitochondria-catalyzed DA metabolism (DOPAC formation), hamster liver mitochondria; format: biochemical; conditions: isolated hamster liver mitochondria
From the text: (§1) Hamster liver mitochondrial preparations were obtained by the well-known method of Johnson & Lardy (see John, D. & Lardy, H. (1967) Meth. Enzymol. 10, 94). The integrity of these mitochondrial preparations, evaluated by measuring their latent glutamate dehydrogenase activity according to the methods of Beaufay, H., and Bendall, D. S., Baudhuin, P. & deDuve, C. (1959) J. Cell Biol. 73, 623-628 before and after the metabolic study, were over 97% and 93%, respectively.
Reactions were initiated by the addition of mitochondria and allowed to proceed in a 37° C. shaking water bath for 30 min. Reactions were terminated by the addition of 0.05 ml each of ice-cold 1 M HClO4 and 10 mM EDTA. […] DA, 5-HT, and their major metabolites in the supernatant were analyzed directly by HPLC.
The HPLC system used in this study consisted of a BAS Sample Sentinel Autosampler with refrigerated (4° C.) sample compartment, PM80 solvent delivery system, and a LC-26 on-line degasser. […] DA and 5-HT were analyzed on a BAS phase II ODS-3, 3 μm, 3.2×100 mm column. […] DOPAL, DOPAC, 5-HIAL and 5-HIAA were analyzed on a Beckman ultrasphere ODS-5, 5μ, 4.6×250 mm column. […] Data were collected and analyzed with a Nelson data collection system (Perkin-Elmer) or a Waters 740 Data Module. The effect of a test compound on 5-HIAL or DOPAL accumulation measured at five different concentrations were averaged and presented as % of control.

[5] = tested on: hamster liver mitochondria (MAO/ALDH pathway, 5-HT as substrate); assay: Mitochondria-catalyzed 5-HT metabolism (5-HIAL, 5-HIAA, 5-HT depletion), hamster liver mitochondria; format: biochemical; conditions: for inhibition of 5-HIAA formation: isolated hamster liver mitochondria
From the text: as §1
Reactions were initiated by the addition of mitochondria and allowed to proceed in a 37° C. shaking water bath for 30 min. Reactions were terminated by the addition of 0.05 ml each of ice-cold 1 M HClO4 and 10 mM EDTA. The samples were kept on ice for 1 hour followed by centrifugation (12,000 rpm) in a microcentrifuge (Microspin 24S, Sorvall) for 15 min. DA, 5-HT, and their major metabolites in the supernatant were analyzed directly by HPLC.
The HPLC system used in this study consisted of a BAS Sample Sentinel Autosampler with refrigerated (4° C.) sample compartment, PM80 solvent delivery system, and a LC-26 on-line degasser. The detector is a LC-4C amperometric controller with a CC-5 cross-flow thin-layer (0.005″) electrochemical cell composed of glassy carbon and silver/silver chloride reference electrode (Bioanlytical Systems, Inc., West Lafayette, Ind.). For routine analysis, the potential and sensitivity were set at 650 mV and 20 nA full scale, respectively. Column temperature was maintained with a Waters Temperature Control Module (Waters, Milford, Mass.). DA and 5-HT were analyzed on a BAS phase II ODS-3, 3 μm, 3.2×100 mm column. […] DOPAL, DOPAC, 5-HIAL and 5-HIAA were analyzed on a Beckman ultrasphere ODS-5, 5μ, 4.6×250 mm column. […] Data were collected and analyzed with a Nelson data collection system (Perkin-Elmer) or a Waters 740 Data Module. The effect of a test compound on 5-HIAL or DOPAL accumulation measured at five different concentrations were averaged and presented as % of control.

rats = conditions: cited from earlier work
rat liver mitochondria = assay: Mitochondria-catalyzed 5-HIAA formation, rat liver mitochondria; conditions: same concentration range
[6] = human mitochondrial ALDH, read-out: ALDH-2 Ki (competitive inhibition constant)
[7] = human mitochondrial ALDH, read-out: ALDH-2 αKi (noncompetitive inhibition constant)

Compound | Ki [1, 6] [nM] | Ki [1, 7] [nM] | ethanol intake suppression [2] | ETOH Intake Suppression, % [2] [%] | other results
O=C(CCl)Oc1ccc2c(=O)c(-c3ccc(O)cc3)coc2c1 [Compound 16, 7-O-daidzein-2-chloroacetate] | 1060 | 10600 | – | – | ALDH-2 inhibitory potency, in words [1]: less potent inhibitors relative to daidzin
O=c1c(-c2ccc(O)cc2)coc2cc(O)ccc12 [Compound 1, daidzein] | – | – | −30% | 32 | suppression of hamster ethanol intake [2]: 32%
O=c1c(-c2ccc(O)cc2)coc2cc(O)cc(O)c12 [genestein] | – | – | did not suppress ethanol intake | – | –
CC[N+](CC)(CC)CCOc1ccc2c(=O)c(-c3ccc(O)cc3)coc2c1 [Compound 15, 7-O-(triethyl-6-aminoethyl)-daidzein] | 80 | 1600 | – | – | –
O=C(O)CCCCCCCCCOc1ccc2c(=O)c(-c3ccc(O)cc3)coc2c1 [Compound 5] | 4 | 50 | – | 84 | –
O=c1cc(-c2ccccc2)oc2cc(O)cc(O)c12 [Compound 21, Chrysin, reference compound] | 35000 | 110000 | – | 0 | –
O=c1c(-c2ccc(O)cc2)coc2cc(OCCC3OCCCO3)ccc12 [Compound 8] | – | – | −30% | 32 | –
O=c1c(-c2ccc(O)cc2)coc2cc(O[C@@H]3O[C@H](CO)[C@@H](O)[C@H](O)[C@H]3O)ccc12 [Compound 2, daidzin] | – | – | > 60% | 64 | suppression of hamster ethanol intake [2]: 64%; inhibition of human mitochondrial aldehyde dehydrogenase (ALDH-2) [3]: potent and selective inhibitor; inhibition of DOPAC formation [4]: potently inhibit; effect on mitochondria-catalyzed 5-HT depletion ([5]; at concentrations that significantly inhibit 5-HIAA formation): little or no effect; inhibition of 5-HIAA formation [5]: potently inhibit the formation of 5-hydroxyindole-3-acetic acid (5-HIAA); suppression of ethanol consumption in rats (rats): confirmed
O=C(CBr)Oc1ccc2c(=O)c(-c3ccc(O)cc3)coc2c1 [Compound 17, 7-O-daidzein-2-bromoacetate] | 1800 | 20000 | – | – | ALDH-2 inhibitory potency, in words [1]: less potent inhibitors relative to daidzin
CCOc1ccc2c(=O)c(-c3ccc(O)cc3)coc2c1 [Compound 7] | 35 | 560 | did not suppress ethanol intake | – | –
O=C(O)CCCCCCOc1ccc2c(=O)c(-c3ccc(O)cc3)coc2c1 [Compound 4, 7-O-[ω-carboxyhexyl]-daidzein] | 9 | 140 | – | 69 | suppression of hamster ethanol intake [2]: about 70%
CN(C)CCC(=O)Oc1ccc2c(=O)c(-c3ccc(O)cc3)coc2c1 [Compound 18, 7-O-daidzein-3-dimethylaminopropionate] | 1750 | 24000 | – | – | ALDH-2 inhibitory potency, in words [1]: less potent inhibitors relative to daidzin
NCCCCCCOc1ccc2c(=O)c(-c3ccc(O)cc3)coc2c1 [Compound 13, 7-O-(6-aminohexyl)-daidzein] | 36 | 600 | did not suppress ethanol intake | – | –
CC[N+](CC)(CC)CCCCCCOc1ccc2c(=O)c(-c3ccc(O)cc3)coc2c1 [Compound 11, 7-O-(triethyl-6-aminohexyl)-daidzein] | – | 80 | – | – | Ki ([1]; read-out: Ki, human ALDH-2): 5 nM
CC(Br)CCCCC(=O)Oc1ccc2c(=O)c(-c3ccc(O)cc3)coc2c1 (centres unmarked) [Compound 14, 7-O-daidzein-6-bromoheptanoate] | 20 | 260 | – | – | ALDH-2 inhibitory potency, in words [1]: less potent than 7-O-(6-bromohexyl)-daidzein
O=C(O)CCCCCOc1ccc2c(=O)c(-c3ccc(O)cc3)coc2c1 [Compound 3, 7-O-[ω-carboxypentyl]-daidzein] | – | – | – | 70 | suppression of hamster ethanol intake [2]: about 70%
O=c1c(-c2ccc(O)cc2)coc2cc(OCCCCCCBr)ccc12 [Compound 10, 7-O-(6-bromohexyl)-daidzein] | – | 70 | only marginally active | 14 | Ki ([1]; read-out: Ki, human ALDH-2): 3 nM
O=C(O)CCCCCCCCCCOc1ccc2c(=O)c(-c3ccc(O)cc3)coc2c1 [Compound 6] | – | – | – | 86 | –
O=c1cc(-c2ccccc2)oc2c(O)c(O)ccc12 [Compound 22, 7,8-Dihydroxyflavone] | 35000 | 270000 | did not suppress ethanol intake | 0 | suppression of hamster ethanol intake [2]: do not exert any significant effect on ethanol intake
C=CCOc1ccc2c(=O)c(-c3ccc(O)cc3)coc2c1 [allyl] | – | – | did not suppress ethanol intake | – | –
O=c1c(-c2ccc(O)cc2)coc2c([C@@H]3O[C@H](CO)[C@@H](O)[C@H](O)[C@H]3O)c(O)ccc12 [Compound 20, Puerarine] | – | – | – | 0 | suppression of ethanol consumption in hamsters, in words ([2]; hamsters): not hamsters; suppression of hamster ethanol intake [2]: do not exert any significant effect on ethanol intake; inhibition of 5-HIAA formation [5]: does not inhibit 5-HIAA formation; inhibition of 5-HIAA formation (rat liver mitochondria): does inhibit 5-HIAA formation; suppression of ethanol consumption in rats (rats): suppresses ethanol consumption in rats

From US20070270332A1, “METHODS AND ASSAYS USEFUL IN THE TREATMENT OF ALCOHOL DEPENDENCE OR ALCOHOL ABUSE” (priority 1998, published 2007)
